Reference: US11986482B2, “Method of promoting antitumor or anti-cancer immunity” (City University of Hong Kong, priority 2021, dated 2024)
“Also recorded” adds a separate entry of the source.

Tests used:
[1] = test system: EGFR; test: EGFR degradation assay (EGF-488); type: cell-based; conditions: HeLa cells, 6J1 1 μM 3 h, EGF-488 2 μg/ml, 2 h of EGF treatment
Procedure: Furthermore, HeLa cells are pretreated with DMSO or 6J1 (1 μM) for 3 h. Then, cells are incubated with EGF-488 (2 μg/ml) on ice for 1 h followed by incubating in the complete medium at 37° C. in a CO2 incubator. Cells are fixed at the indicated times and imaged.

[2] = test system: Rab27a-knockout 4T1 cells; test: 4T1-shRab27A (Rab27a-knockout) orthotopic tumors in Balb/c mice; type: in vivo, mouse
Procedure: Therefore, it is possible that the increased exosomal PD-L1 secretion induced by 6J1 may still suppress the tumor-infiltrating T cell cytotoxicity in vivo, even though 6J1 reduces the cell surface expression level of PD-L1 on the tumor cells. To evaluate the role of exosomal PD-L1 in the tumor microenvironment and tumor progression in mice, inventors knock out Rab27a in 4T1 cells to inhibit the secretion of exosomes. 4T1-shNC or 4T1-shRab27A cells are treated with or without 6J1 (1 μM). The supernatant is collected, and the concentration of extracellular vesicle is determined using a Nanosight nanoparticle analyzer. […] Inventors analyze the plasma membrane levels of PD-L1 in 4T1-shNC or 4T1-shRab27A cells treated with or without 6J1 (1 μM). […] Next, control or Rab27a-knockout 4T1 cells are orthotopically transplanted into syngeneic fat pads of female Balb/c. The mice are randomly divided (n=5 per group) and treated with either buffer or 6J1 (30 mg/kg, daily) via oral gavage. […] Inventors also perform the immunostaining of CD8 and Granzyme B in the tumor sections. […] Since enhanced antitumor immunity leads to increased apoptosis in tumors, inventors assess the levels of cleaved caspase3 (CCA3), one of the markers of apoptosis, in tumor sections as well.

[3] = test system: 4T1 cells; test: T cell-mediated tumor cell killing assay; type: cell-based, mouse; conditions: 6J1 (1 µM) per FIG. 8d legend, CCK8 assay
[4] = test system: LL/2 cells; test: LL/2 mouse lung cancer model in C57BL mice; type: in vivo; conditions: 30 mg/kg, daily, oral gavage, 4 weeks
Procedure: C57BL mice (n=5) are injected subcutaneously with LL/2 cells. After tumors reach around 5 mm in size, the mice are treated with either buffer (PBS) or 6J1 (30 mg/kg, daily, oral gavage) for 4 weeks. After 4 weeks, primary tumors and lungs are collected for analysis (FIGS. 16a and 16b). Tumor volumes are measured daily (p<0.001) in FIG. 16c.

[5] = test system: HeLa, A549 and MDA-MB-231 cell lines; test: Cytotoxicity, propidium iodide cell death ratio; type: cell-based; conditions: 24 h or 48 h
Procedure: The inventors also test the cytotoxicity of 6J1 in several cancer cell lines, HeLa, A549 and MDA-MB-231 cell lines. Cells are grown in 96-well plates in triplicate and treated with or without 6J1 at the concentrations of 0, 0.01, 0.1, 1, 10 and 100 μM indicated for 24 h or 48 h. They are then stained with propidium iodide (PI) or Hochest 33342 to measure the cell death ratio and cell number, respectively. […] Inventors also test the cytotoxicity of 6J1 in 4T1 cells. 4T1 cells are plated in 96-well plates in triplicate and treated with or without 6J1 at the concentrations of 0, 0.01, 0.1, 1, 5, 10, 20, 40, 80 and 100 μM indicated for 24 h or 48 h. The cell viability was then quantified via the MTT assay.

[6] = test system: HeLa cells; test: Extracellular vesicle concentration, Nanosight nanoparticle analyzer, HeLa cells; type: cell-based; conditions: 1 μM, 24 h
Procedure: It has previously been shown that interfering with endosomal trafficking promotes exosome secretion. Moreover, PD-L1 has been reported to be enriched in exosomes and secreted outside the cell. Thus, inventors speculate that 6J1 may induce the secretion of the PD-L1 trapped in the endosomal compartments via exosomes. To determine whether 6J1 may induce the secretion of PD-L1 via exosomes, HeLa cells are treated with or without 6J1 (1 μM) for 24 h. The supernatant is collected. Inventors purify the exosomes from the supernatant of HeLa cells by sequential centrifugation. The concentration of extracellular vesicle is determined using a Nanosight nanoparticle analyzer. And HeLa cells are treated with or without 6J1 (1 μM) for 48 h. The cell and supernatant are collected for Western Blot analysis. […] Moreover, the activity of Rab27a in HeLa cells treated with or without 6J1 (1 μM) is examined with a GST-SHD pulldown assay.
Moreover, ATG5- or LC3-knockout HeLa cells are treated with or without 6J1 (1 μM) for 24 h. The supernatant is collected, and the concentration of the extracellular vesicle is determined using a Nanosight nanoparticle analyzer. The exosomes are also collected and subjected to western blot analysis of the EVs marker and PD-L1 in FIG. 7a. The live cells are also labeled with an anti-PD-L1 antibody in FIG. 7b and subjected to flow cytometry analysis in FIG. 7c. […] In addition, inventors assess whether other autophagy-related genes, e.g., ATG4B, ATG7, Beclin1, and Vps34 are involved in 6J1-mediated exosomal PD-L1 secretion. ATG4B-, ATG7-, Beclin1-, or VPS34-knockout HeLa cells are treated with or without 6J1 (1 μM) for 24 h. The supernatant is collected, and the concentration of extracellular vesicle is determined using a Nanosight nanoparticle analyzer. The exosomes are also collected and subjected to western blot analysis of the EVs marker and PD-L1 in FIG. 7d. The live cells are also labeled with an anti-PD-L1 antibody and subjected to flow cytometry analysis in FIG. 7e.

[7] = test system: 4T1 cells; test: Chemokine level in supernatant of 4T1 cells; type: cell-based, mouse; conditions: in vitro, 1 μM
[8] = test system: 4T1 cells; test: 4T1-shNC or 4T1-shRab27A tumors in Balb/c nude mice; type: in vivo, mouse; conditions: 30 mg/kg, daily, oral gavage
Procedure: Inventors also implant control or Rab27a-knockout 4T1 cells into the fat pads of female Balb/c nude mice. The mice are randomly divided (n=4 per group) and treated with either buffer or 6J1 (30 mg/kg, daily) via oral gavage.

[9] = Rab27a-knockout 4T1 cells, 6J1 30 mg/kg, daily, oral gavage
[10] = Rab27a-knockout 4T1 cells, 6J1 30 mg/kg, daily, oral gavage, 30 mg/kg

In the case of `OCCOCCN(c1ccccc1)c1nc(N/N=C/c2cccc(I)c2)nc(N2CCOCC2)n1` [Compound 6J1], the EGFR degradation [1] is reported as “blocks the EGFR degradation”, the “activated tumor-infiltrating CD8+ T cell population and expression of IFN-γ vs other groups” value [2, 9] is reported as “significantly increased” and the “tumor growth and tumor burden vs other groups” value [2, 9] is reported as “significantly smaller”. For the same compound, the “cleaved caspase3 (CCA3) apoptotic signals in tumors vs other groups” value [2, 10] was “Stronger clustered apoptotic signals”, the “infiltrated CD8+ T cells in tumor sections (immunostaining) vs other groups” value [2, 10] was “More infiltrated CD8+ T cells are detected; also recorded: more infiltrated CD8^+ T cells are detected” and the “overall survival of mice bearing orthotopic 4T1 tumors vs other groups” value ([2]; combination of Rab27a knockout and 6J1 treatment) was “substantially prolongs the overall survival”. The “sensitivity of 4T1 cells to pre-activated T cell-mediated cytolysis” value [3] was “more sensitive to pre-activated T cell-mediated cytolysis”, the “tumor growth of mouse lung cancer” value [4] was “significantly inhibits the tumor growth of mouse lung cancer” and the cell death ([5]; 0.01-100 μM) was “induces cell death in a concentration-dependent manner”. The “cell death at effective concentrations” value ([5]; ≤1 μM) was “hardly induces any cell death”, the “6J1-induced EVs secretion” value ([6]; ATG4B-, ATG7-, Beclin1- or VPS34-knockout HeLa cells) was “fails to abolish” and the “6J1-induced EVs secretion” value ([6]; ATG5- or LC3B-knockout HeLa cells) was “Neither ATG5 nor LC3B knockout impairs”. For the same compound, the “exosome secretion (extracellular vesicle concentration)” value ([6]; HeLa cells) was “dramatically induces exosome secretion”, the “secretion of various chemokines from 4T1 cells” value [7] was “markedly induces the secretion of various chemokines” and the “anti-cancer effect of 6J1 or 6J1 with Rab27a knockout in immunocompromised mice” value [8] was “dramatically abolished”.
